Assay results published in patent publication US10344002B2, “Compositions and methods for treating metabolic disorders” (NuSirt Sciences, Inc., priority 2016, dated 2019).

Assays:
C2C12 muscle cells = assay: Fatty acid oxidation (oxygen consumption rate, Seahorse XF-24) in C2C12 muscle cells; type: cell-based; details: C2C12 muscle cells
Procedure: (§1) Cell Culture: C2C12 muscle cells were seeded with 40,000 cells per well on Seahorse tissue culture plates in Dulbecco's modified eagle's medium (DMEM) containing 10% fetal bovine serum (FBS) and antibiotics (1% penicillin-streptomycin) at 37° C. in 5% CO2. After reaching confluency (24 hours), cells were induced to differentiate with DMEM containing 2% Horse Serum for 3 to 4 days until myotubes were fully formed. Cells were then treated with indicated concentration of Compound 2 for 24 hours.
(§2) Compound 2 was dissolved in 100% DMSO to a stock concentration of 100 mM. This stock was further diluted to indicated concentrations in DMEM media.
Fatty acid oxidation: Baseline and palmitate-stimulated oxygen consumption rates were measured with XF-24 analyzer (Seahorse Bioscience (now part of Agilent Technologies), MA, USA). After 24 hour treatment with Compound 2 of differentiated C2C12 muscle cells, cells were washed twice with non-buffered carbonate-free pH 7.4 low glucose (2.5 mM) DMEM containing carnitine (0.5 mM), equilibrated with 600 μl of the same media in a non-CO2 incubator for 45 minutes, and then inserted into the instrument for 15 minutes of further equilibration, followed by O2 consumption measurement. Three successive baseline measures at five-minute intervals were taken prior to injection of palmitate (200 μM final concentration). Sets of three five-minute intervals followed by 10-minute time delay were continued over a 2 to 3 hour period after palmitate injection. The area under the curve of 02 consumption change from baseline for each sample was then calculated and used for subsequent analysis. Data are represented as mean±SD for each treatment group.

AMPK [1] = assay: Western blot, phosphorylated/total AMPK in 3T3L1 adipocytes; type: cell-based; details: 48 hours; for ratio of phosphorylated/total AMPK (FIG. 5): control approximately 1.52
Procedure: 3T3L1 adipocytes were seeded with 200,000 cells per well on 6-well tissue culture plates in Dulbecco's modified eagle's medium (DMEM) containing 10% fetal bovine serum (FBS) and antibiotics (1% penicillin-streptomycin) at 37° C. in 5% CO2. After reaching confluency (3 days), cells were induced to differentiate with a standard differentiation media (DM2-L1, Zen-Bio Inc., NC) for 3 days, then cells were maintained in DMEM (10% FBS, 1% penicillin-streptomycin) for another 11 days to induce lipid accumulation. Cells were then treated with indicated concentration of Compound 2 for 48 hours.
as §2
(§3) Western blots: Phospho-AMPK, AMPK, Phospho-ACC, ACC antibodies were obtained from Cell Signaling (Danvers, Mass.). Sir2 antibody was obtained from MyBiosource (San Diego, Calif.). Protein levels of cell extracts were measured by BCA kit (Thermo Scientific, Pittsburgh, Pa.). For Western blot, 10-50 μg protein was resolved on 4-15% gradient polyacrylaminde gels (Criterion precast gel, Bio-Rad Laboratories, Hercules, Calif.), transferred to either PVDF or nitrocellulose membranes, incubated in blocking buffer (3% BSA or 5% non-fat dry milk in TBS) and then incubated with primary antibody (1:1000 dilution), washed and incubated with horseradish peroxidase- or fluorescence-conjugated secondary antibody (1:10000 dilution). Visualization was conducted using BioRad ChemiDoc instrumentation and software (Bio-Rad Laboratories, Hercules, Calif.) and band intensity was assessed using Image Lab 4.0 with correction for background and loading controls.

AMPK [2] = assay: Western blot, P-AMPK/AMPK in C2C12 muscle cells; type: cell-based; details: 4 hours; for ratio of P-AMPK/AMPK (FIG. 6A): control approximately 0.75
Procedure: as §1, with “seeded with 400,000 cells per” for “seeded with 40,000 cells per”, “well on 6-well tissue culture” for “well on Seahorse tissue culture”, “Serum for 5 to 6” for “Serum for 3 to 4”, “5 to 6 days until” for “3 to 4 days until”, “2 for 4 and 24 hours.” for “2 for 24 hours.”
as §2, §3

adiponectin = assay: Adiponectin gene expression (real-time PCR) in 3T3L1 adipocytes; type: cell-based; details: for adiponectin expression, fold change to control (FIG. 8): 48 hours
Procedure: Cell Culture: 3T3L1 adipocytes were seeded with 20,000 cells per well on 96-well tissue culture plates in DMEM containing 10% FBS and 1% penicillin-streptomycin. After reaching confluency (3 days), cells were induced to differentiate with a standard differentiation media (DM2-L1, Zen-Bio Inc., NC) for 3 days, then cells were maintained in DMEM (10% FBS, 1% penicillin-streptomycin) for another 8 days to induce lipid accumulation. Cells were then treated with indicated concentration of Compound 2 for 48 hours.
as §2
Gene Expression: 3T3L1 adipocytes were grown and treated as described above. The medium was removed and the cells were washed with cold PBS. Cells Lysis, reverse transcription and real-time PCR was performed according to the instructions of the TaqMan® Gene Expression Cells-to-CT™ Kit manual (Life Technologies Inc, Cat #4399002). cDNA was probed with adiponectin and normalized to 18S.

C. elegans = assay: Lifespan of C. elegans under normal and mild oxidative stress (Paraquat) conditions; type: in vivo; details: for increase of median lifespan: 10 nM and 100 nM, p<0.0002
Procedure: Lifespan Protocol: Wild-type worms were synchronized and hatched L1s were transferred to normal NGM agar plates until L4/young adult stage (3 days). 100 synchronized stage L4 worms per group were picked and placed on NGM agar plates seeded with E. coli strain OP-50 (=day 1 of study). Paraquat was added in the indicated concentration to the agar plates, the Compound 2 concentrations were dissolved in the E. coli suspension. The worms were maintained at 21° C. throughout the duration of the study. Live worms were placed on new plates every day to eliminate progeny.
Statistics: For the statistical analysis of the lifespan study with C. elegans, data were analyzed via Kaplan-Meier survival curves and statistical significance between curves was determined with the Log-rank (Mantel_Cox) test using Prism 6 (GraphPad Software, La Jolla Calif., USA, www.graphpad.com).

[3] = mild oxidative stress (500 uM Paraquat)

With `CC(C)C[C@@H]1NC(N=C(N)N)=NC1=O` [Compound 2] the “increase of the baseline oxygen consumption rate (area under the curve)” value (C2C12 muscle cells; 10 nM, 24 hour treatment, prior to palmitate injection, p=0.002) was 60%, the “further increase of palmitate-induced oxygen consumption vs control” value (C2C12 muscle cells; after palmitate injection (200 μM), p=0.002) was about 75% and the “effect on baseline and palmitate-stimulated oxygen consumption rate (OCR)” value (C2C12 muscle cells; concentrations in excess of luM (not shown)) was “no effect”. The “dose-response of OCR effects (area under the curve)” value (C2C12 muscle cells; dose-responsive only at 0-10 nM) was “plateaued between 10 and 100 nM”, the “dose-response on baseline and palmitate-stimulated OCR” value (C2C12 muscle cells; higher concentrations (>100 nM)) was “diminishing responses” and the “ratio of phosphorylated/total AMPK (FIG. 5)” value (AMPK [1]; 10 nM) was “approximately 1.5”. The “ratio of phosphorylated/total AMPK (FIG. 5)” value (AMPK [1]; 100 nM) was “approximately 2.0”, the “increase in the ratio of phosphorylated to total AMPK protein expression” value (AMPK [1]; 100 nM, p=0.0004) was 35% and the “effect on the ratio of P-AMPK/AMPK” value (AMPK [2]; 10 nM) was “no effect”. The “ratio of P-AMPK/AMPK (FIG. 6A)” value (AMPK [2]; 10 nM) was “approximately 0.65”, the “ratio of P-AMPK/AMPK (FIG. 6A)” value (AMPK [2]; 100 nM) was “approximately 1.35” and the “increase in the ratio of P-AMPK/AMPK” value (AMPK [2]; 100 nM, p=0.03) was 78%. For the same compound, the “increase of adiponectin gene expression” value (adiponectin; 10 nM and 100 nM, 48 hour treatment) was “approximately 35%”, the “adiponectin expression, fold change to control (FIG. 8)” value (adiponectin; 10 nM) was “approximately 1.35 fold change” and the “adiponectin expression, fold change to control (FIG. 8)” value (adiponectin; 100 nM) was “approximately 1.4 fold change”. For the same compound, the “increase of maximum lifespan” value (C. elegans; [3]) was 14%, the “increase of median lifespan” value (C. elegans; [3]) was 30% and the “increase of median lifespan” value (C. elegans; normal conditions) was 18%.
